Results published in publication PMC8151276, “An Integrated Approach toward NanoBRET Tracers for Analysis of GPCR Ligand Engagement” (Molecules, 2021).

Tests used:
Assay type in all cases: binding
[1] = biological target: T1, CCR9 (Homo sapiens, UniProt P51686); experiment: NanoBRET screen HiBiT-CCR9 in HEK293; settings: CCR9
T1 construct: purchased Promega (in-house HiBiT-GPCR construct library, NanoBRET)
T1 sequence (P51686 1-369): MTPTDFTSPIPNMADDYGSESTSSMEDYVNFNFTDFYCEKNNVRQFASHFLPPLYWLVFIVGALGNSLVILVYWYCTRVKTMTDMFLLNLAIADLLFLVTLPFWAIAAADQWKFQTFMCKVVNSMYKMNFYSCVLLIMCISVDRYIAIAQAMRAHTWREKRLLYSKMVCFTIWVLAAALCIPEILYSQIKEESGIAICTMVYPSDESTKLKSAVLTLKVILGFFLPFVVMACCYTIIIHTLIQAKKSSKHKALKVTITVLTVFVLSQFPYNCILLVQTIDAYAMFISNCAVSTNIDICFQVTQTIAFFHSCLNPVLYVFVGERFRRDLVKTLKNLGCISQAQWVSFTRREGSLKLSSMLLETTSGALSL
Procedure: (§1) Each tracer candidate was screened across the entire library of HiBiT-GPCR constructs using NanoBRET as the detection modality. As depicted in Figure 4A, the specificity of interactions was evaluated through decrease in BRET due to competitive displacement of a bound tracer by excess parental compound. Each tracer was analyzed for binding to each HiBiT-GPCR fusion in the absence and in the presence of competing parental compound. Briefly, HEK293 cells were transfected with HiBiT-GPCR constructs diluted into promoterless DNA to reduce expression and maximize translocation to the cell surface. Each tracer candidate was then screened at concentrations of 1 μM and 0.1 μM across cells expressing these fusions. Cells were treated for 1.5 h with tracer either alone or in the presence of 20 μM competing parental compound (i.e., control). BRET was measured upon addition of purified LgBiT and subsequent complementation with HiBiT genetically fused to a GPCR. The specificity of interactions was assessed through a decrease in BRET signal due to competitive displacement of the bound tracer. To further gauge the robustness of these interactions, the fold response over the control (i.e., BRETtracer/BRETcontrol) was calculated. We chose a 1.5-fold response, which translates to ≥7-fold signal over noise as the minimal threshold required to score an interaction as positive. […]. Below we highlight the screening results obtained for our exemplary fluorescent tracers based on Clozapine, Amitriptyline and AZD1283.
(§2) HiBiT-GPCR DNA constructs were diluted in 10 mM Tris pH 8 to a final concentration of 0.01 μg/μL, arrayed in 96-well plates and stored at −20 °C. For transfection, HEK293 cells were suspended in Opti-MEM (without phenol red) supplemented with 2% fetal bovine serum (Seradigm) and 100 units/mL penicillin–streptomycin (Gibco) at a final concentration of 220,000 cells/mL and dispensed into white 96-well plates at 90 μL/well. Subsequent transfections and screens were carried using an Agilent Bravo Automated Liquid Handling Platform. First, the 96-well HiBiT DNA arrays were diluted 25-fold in Opti-MEM (without serum or phenol red) to a final concentration of 0.0004 μg/μL and 20 μL of the diluted DNAs were transferred into new 96-well plates. Next, promoterless carrier DNA (1 μg/μL) was diluted 25-fold (0.04 μg/μL) and then dispensed into the diluted arrays at 20 μL/well. Following brief mixing, Viafect transfection reagent (Promega) diluted 16-fold into Opti-MEM was dispensed into the plates at 40 μL/well. After mixing by pipetting, plates were incubated for 10 min on the pipetting station deck. The DNA-transfection reagent complexes were then added to plates containing cells. To facilitate the screen, 10 μL of DNA-transfection reagent complexes were added in duplicates to the top 4 and bottom 4 rows, resulting in two identical 48-well arrays per plate. Plates with transfected cells were incubated for 18–20 h at 37 °C/5% CO2. A screen of each tracer across the entire library using two different concentrations requires duplicate plates of transfected cells. Depending on the number of tracers being screened, transfections can be scaled up using the same ratios. The next day, for each tracer, four 20× screening solutions in tracer dilution buffer (Promega) were prepared: two duplicates at final concentration of 20 μM and two duplicates at a final concentration of 2 μM. A competing unmodified compound was added to one of each duplicate at a final concentration of 400 μM. The four resulting solutions were diluted 4-fold in Opti-MEM without serum or phenol red to generate 5× solutions (5 µM and 0.5 µM tracer +/− 100 μM competing compound). To screen the library, a BioTek MultiFlo FX liquid dispenser was used to dispense 22.5 µL of tracer solution to the top 4 rows and 22.5 µL tracer + competing compound solution to the 4 bottom rows. Plates were briefly mixed on an orbital shaker and incubated for 1.5 h at room temperature. […]

[2] = biological target: T2, AVPR2 (Homo sapiens, UniProt P30518); experiment: NanoBRET screen HiBiT-AVPR2 in HEK293; settings: AVPR2
T2 construct: purchased Promega (in-house HiBiT-GPCR construct library, NanoBRET)
T2 sequence (P30518 whole entry): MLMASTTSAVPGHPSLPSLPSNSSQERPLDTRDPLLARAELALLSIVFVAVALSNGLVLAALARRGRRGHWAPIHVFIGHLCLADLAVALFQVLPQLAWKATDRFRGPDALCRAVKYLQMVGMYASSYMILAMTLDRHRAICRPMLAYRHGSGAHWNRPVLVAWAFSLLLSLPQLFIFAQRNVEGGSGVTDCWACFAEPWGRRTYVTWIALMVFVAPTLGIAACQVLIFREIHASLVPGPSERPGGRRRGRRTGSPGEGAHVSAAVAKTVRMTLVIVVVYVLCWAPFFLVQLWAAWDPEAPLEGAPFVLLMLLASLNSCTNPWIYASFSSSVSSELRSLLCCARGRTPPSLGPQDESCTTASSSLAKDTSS
Procedure: as §1, §2

[3] = biological target: T3, GRPR (Homo sapiens, UniProt P30550); experiment: NanoBRET screen HiBiT-GRPR in HEK293; settings: GRPR
T3 construct: purchased Promega (in-house HiBiT-GPCR construct library, NanoBRET)
T3 sequence (P30550 whole entry): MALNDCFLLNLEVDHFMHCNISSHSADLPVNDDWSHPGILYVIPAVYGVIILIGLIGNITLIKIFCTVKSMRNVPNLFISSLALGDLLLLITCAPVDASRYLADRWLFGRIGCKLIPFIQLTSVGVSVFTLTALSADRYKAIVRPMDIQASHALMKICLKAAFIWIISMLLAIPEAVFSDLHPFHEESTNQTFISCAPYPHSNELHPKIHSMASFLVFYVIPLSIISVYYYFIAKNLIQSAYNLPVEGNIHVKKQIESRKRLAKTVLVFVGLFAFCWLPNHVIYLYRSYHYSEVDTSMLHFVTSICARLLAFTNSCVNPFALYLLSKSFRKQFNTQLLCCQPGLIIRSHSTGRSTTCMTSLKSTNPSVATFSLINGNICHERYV
Procedure: as §1, §2

[4] = biological target: T4, P2RY10 (Homo sapiens, UniProt O00398); experiment: NanoBRET screen HiBiT-P2RY10 in HEK293; settings: P2RY10
T4 construct: purchased Promega (in-house HiBiT-GPCR construct library, NanoBRET)
T4 sequence (O00398 whole entry, one chain of several): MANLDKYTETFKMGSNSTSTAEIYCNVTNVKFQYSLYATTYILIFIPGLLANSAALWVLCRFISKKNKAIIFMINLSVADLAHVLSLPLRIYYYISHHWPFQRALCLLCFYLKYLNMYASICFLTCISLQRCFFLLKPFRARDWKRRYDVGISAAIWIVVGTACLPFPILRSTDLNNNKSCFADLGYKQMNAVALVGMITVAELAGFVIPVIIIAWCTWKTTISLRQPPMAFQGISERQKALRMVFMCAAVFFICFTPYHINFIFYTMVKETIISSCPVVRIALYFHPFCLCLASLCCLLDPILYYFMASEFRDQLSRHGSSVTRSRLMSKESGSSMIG
Procedure: as §1, §2

[5] = biological target: T5, HCRTR1 (Homo sapiens, UniProt O43613); experiment: NanoBRET screen HiBiT-HCRTR1 in HEK293; settings: HCRTR1
T5 construct: purchased Promega (in-house HiBiT-GPCR construct library, NanoBRET)
T5 sequence (O43613 1-425): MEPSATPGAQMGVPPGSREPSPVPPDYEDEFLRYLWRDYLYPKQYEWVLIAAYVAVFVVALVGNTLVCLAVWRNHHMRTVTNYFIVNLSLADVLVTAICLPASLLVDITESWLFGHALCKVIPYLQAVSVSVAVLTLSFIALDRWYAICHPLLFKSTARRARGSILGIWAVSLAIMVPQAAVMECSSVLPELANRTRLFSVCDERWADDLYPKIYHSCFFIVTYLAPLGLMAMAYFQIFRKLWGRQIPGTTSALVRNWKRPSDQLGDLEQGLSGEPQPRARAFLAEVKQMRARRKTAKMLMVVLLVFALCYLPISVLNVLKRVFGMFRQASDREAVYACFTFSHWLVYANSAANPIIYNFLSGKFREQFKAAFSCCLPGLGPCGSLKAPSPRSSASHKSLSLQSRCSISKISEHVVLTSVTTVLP
Procedure: as §1, §2

NanoBRET Fold Response ([1]; 0.1μM tracer): 1.03
NanoBRET Fold Response ([1]; 1μM tracer): 1.05
NanoBRET Fold Response ([2]; 0.1μM tracer): 1.03
NanoBRET Fold Response ([2]; 1μM tracer): 0.95
NanoBRET Fold Response ([3]; 0.1μM tracer): 1.11
NanoBRET Fold Response ([3]; 1μM tracer): 1.37
NanoBRET Fold Response ([4]; 0.1μM tracer): 1.18
NanoBRET Fold Response ([4]; 1μM tracer): 1.33
NanoBRET Fold Response ([5]; 0.1μM tracer): 0.89
NanoBRET Fold Response ([5]; 1μM tracer): 0.98
Structure (SMILES): O=C(CCOCCOCCOCCOCCNC(=O)CCc1ccc2n1[B-](F)(F)[N+]1=C(c3ccc[nH]3)C=CC1=C2)NCCCN1CCN(C2=Nc3cc(Cl)ccc3Nc3ccccc32)CC1 [Clozapine-a-2-NB590]
